This is an account of results in article PMC3685705, “Antimicrobial and antiurease activities of newly synthesized morpholine derivatives containing an azole nucleus” (Medicinal Chemistry Research, 2012).

Converted amounts (≈) assume the structure as drawn. Where two headings read alike, the source gives them in different places.

Data set [1] relates to Enterococcus faecalis ATCC 29212. In words: Antimicrobial activity, broth double microdilution MIC. The conditions noted are these: ATCC29212, Mueller–Hinton broth pH 7.3, 18–24 h at 35 °C, – = no activity, read-out: minimal inhibition concentration, Ef. Type of data set: cell-based.
Data set [2] concerns Staphylococcus aureus ATCC 25923. The description is as above. Type of data set: cell-based. The note with it: ATCC25923, Mueller–Hinton broth pH 7.3, 18–24 h at 35 °C, – = no activity, read-out: minimal inhibition concentration, Sa.
For data set [3], the system named is Bacillus cereus 702 Roma. Described as above. Type of data set: cell-based. The conditions noted are these: pH 7.3, read-out: minimal inhibition concentration, Bc.
The test system of data set [4] is Pseudomonas aeruginosa ATCC 43288. The description is as above. Type of data set: cell-based. The conditions noted are these: ATCC43288, Mueller–Hinton broth pH 7.3, 18–24 h at 35 °C, – = no activity, read-out: minimal inhibition concentration, Pa.
For data set [5], the system named is Escherichia coli ATCC 25922. Described as above. The note with it: ATCC25922, pH 7.3, read-out: minimal inhibition concentration, Ec. Type of data set: cell-based.
Data set [6] has as its system Yersinia pseudotuberculosis ATCC 911. In words: microbe, parasite or virus in culture. Type of data set: cell-based. The conditions noted are these: ATCC911, pH 7.3, read-out: minimal inhibition concentration, Yp.
Data set [7] deals with Mycobacterium smegmatis ATCC 607. Description: Antimicrobial activity, broth double microdilution MIC. Type of data set: cell-based. The note with it: Mycolicibacterium smegmatis.
Data set [8] has as its target urease (Canavalia ensiformis, UniProt P07374). Description: Urease inhibitory activity (Van Slyke and Archibald).
Data set [9] has as its system S. cerevisiae RSKK 251. In words: Antifungal activity, broth double microdilution MIC. Type of data set: cell-based. The note with it: Saccharomyces cerevisiae. Background: Dilution methods test growth across graded concentrations, often in twofold steps.
For data set [10], the system named is Candida albicans ATCC 60193. Description: Antifungal activity, broth double microdilution MIC. Type of data set: cell-based.
Data set [11] deals with all the microorganisms. Description: Antimicrobial activity in vitro, whole panel. The note with it: result in words. Type of data set: cell-based.
The mark [12] stands for this setting: ATCC607, read-out: minimal inhibition concentration, Ms.
Where [13] appears, read: RSKK251, pH 7, read-out: minimal inhibition concentration, Sc.
Where [14] appears, read: Candida albicans, ATCC60193, pH 7, read-out: minimal inhibition concentration, Ca.

Chain of urease (P07374 whole entry, looked up): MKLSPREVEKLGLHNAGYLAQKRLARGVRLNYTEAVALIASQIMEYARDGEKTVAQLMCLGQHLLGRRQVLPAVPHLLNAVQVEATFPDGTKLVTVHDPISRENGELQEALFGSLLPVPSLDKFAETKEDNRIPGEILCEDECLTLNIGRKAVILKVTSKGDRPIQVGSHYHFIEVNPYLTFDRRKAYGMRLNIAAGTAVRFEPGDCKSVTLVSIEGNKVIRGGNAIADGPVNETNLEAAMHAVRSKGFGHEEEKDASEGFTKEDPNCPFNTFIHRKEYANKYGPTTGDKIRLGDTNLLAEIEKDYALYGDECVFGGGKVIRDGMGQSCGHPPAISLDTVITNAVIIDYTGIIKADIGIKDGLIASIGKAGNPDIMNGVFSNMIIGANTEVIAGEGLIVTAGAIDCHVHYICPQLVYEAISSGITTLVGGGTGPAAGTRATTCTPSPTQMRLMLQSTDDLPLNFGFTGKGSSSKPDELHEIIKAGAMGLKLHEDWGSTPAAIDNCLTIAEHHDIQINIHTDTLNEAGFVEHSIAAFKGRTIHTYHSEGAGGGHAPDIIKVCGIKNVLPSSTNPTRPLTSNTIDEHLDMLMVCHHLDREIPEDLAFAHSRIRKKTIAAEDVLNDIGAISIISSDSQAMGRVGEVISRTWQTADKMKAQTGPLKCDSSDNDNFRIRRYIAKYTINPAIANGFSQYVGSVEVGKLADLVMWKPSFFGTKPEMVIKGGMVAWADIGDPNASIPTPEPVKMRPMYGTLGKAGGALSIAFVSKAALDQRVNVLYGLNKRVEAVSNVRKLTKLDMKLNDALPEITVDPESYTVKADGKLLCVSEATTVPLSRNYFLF

For `CC1(C)S[C@@H]2[C@H](NC(=O)[C@H](N)c3ccccc3)C(=O)N2[C@H]1C(=O)O` [Amp., Ampicillin, reference compound], the MIC in data set [1] was 2 µg/mL (≈ 5.72 µM); in data set [2] it was 2 µg/mL (≈ 5.72 µM); in data set [3], less than 1 µg/mL; in [4], greater than 128 µg/mL; in data set [5], 8 µg/mL (≈ 22.9 µM); in data set [6] it was 32 µg/mL (≈ 91.6 µM).
Regarding `CCOC(=O)CNc1ccc(N2CCOCC2)nc1` [Compound 3, Ethyl N-(6-morpholin-4-ylpyridin-3-yl)glycinate], the melting point is 83 to 84 °C. For the same molecule, in data set [7] (setting [12]), the MIC was 125 µg/mL (≈ 471 µM). 13.2 ± 2.25 µM corresponded to half-maximal inhibition in [8] (IC50). Further, the MIC in data set [9] (setting [13]) came out at 1000 µg/mL (≈ 3770 µM). Also, the MIC in data set [10] (setting [14]) is 1000 µg/mL (≈ 3770 µM).
On to `NNC(=O)CNc1ccc(N2CCOCC2)nc1` [Compound 4, 2-[6-(Morpholin-4-yl)pyridin-3-ylamino]acetohydrazide], for which the melting point is 175 to 177 °C. Further, the MIC in data set [7] (setting [12]) is 125 µg/mL (≈ 497 µM). In [8], this molecule yielded an IC50 of 7.92 ± 1.43 µM. The MIC in data set [9] (setting [13]) stood at 1000 µg/mL (≈ 3980 µM). The MIC in [10] (setting [14]) worked out at 500 µg/mL (≈ 1990 µM).
With `O=C(CNc1ccc(N2CCOCC2)nc1)N/N=C/c1ccc(Br)cc1` [Compound 5, N-(4-Bromobenzylidene)-2-[6-(morpholin-4-yl)pyridin-3-ylamino]acetohydrazide], the melting point is 163 to 164 °C. Besides, the MIC in [7] (setting [12]) is 31.3 µg/mL (≈ 74.8 µM). For the same molecule, the IC50 in data set [8] is 6.87 ± 0.06 µM. For the same molecule, in data set [9] (setting [13]), the MIC is 1000 µg/mL (≈ 2390 µM). Also, the MIC in data set [10] (setting [14]) was determined as 1000 µg/mL (≈ 2390 µM).
Molecule `O=C(CNc1ccc(N2CCOCC2)nc1)N/N=C/C=C/c1ccccc1` [Compound 6, 2-{[6-(Morpholin-4-yl)pyridin-3-yl]amino}-N-(3-phenylallylidene)acetohydrazide] gave a melting point of 194 to 195 °C. The half-inhibitory concentration (IC50) in [8] worked out at 8.29 ± 2.3 µM. The MIC in [9] (setting [13]) is 1000 µg/mL (≈ 2740 µM). In data set [10] (setting [14]), the MIC was 500 µg/mL (≈ 1370 µM).
For `Sc1nnc(CNc2ccc(N3CCOCC3)nc2)o1` [Compound 7, 5-{[(6-Morpholin-4-ylpyridin-3-yl)amino]methyl}-1,3,4-oxadiazole-2-thiol] the same measures were 221 to 222 °C, 7.01 ± 0.68 µM, 1000 µg/mL (≈ 3410 µM) and 500 µg/mL (≈ 1700 µM).
As to `S=c1oc(CNc2ccc(N3CCOCC3)nc2)nn1CN1CCN(c2ccccc2)CC1` [Compound 8, 5-{[(6-Morpholin-4-ylpyridin-3-yl)amino]methyl}-3-[(4-phenylpiperazin-1-yl)methyl]-1,3,4-oxadiazole-2(3H)-thione], the melting point fell in the range of 87 to 88 °C. The MIC in data set [7] (setting [12]) was found to be 125 µg/mL (≈ 267 µM). The MIC in [1] came to 31.3 µg/mL (≈ 66.9 µM). Further, the MIC in data set [2] came out at 31.3 µg/mL (≈ 66.9 µM). In data set [3], the MIC was determined as 62.5 µg/mL (≈ 134 µM). For the same molecule, in [11], the “antimicrobial activity against all the microorganisms” value was “active against all the microorganisms”. Further, the MIC in [4] turned out to be 62.5 µg/mL (≈ 134 µM). The MIC in data set [5] was found to be 62.5 µg/mL (≈ 134 µM). In [8], the IC50 was 4.99 ± 0.59 µM. For the same molecule, the MIC in [9] (setting [13]) was found to be 1000 µg/mL (≈ 2140 µM). Moreover, the MIC in [10] (setting [14]) was found to be 1000 µg/mL (≈ 2140 µM). The MIC in data set [6] worked out at 62.5 µg/mL (≈ 134 µM).
The molecule `O=C(CNc1ccc(N2CCOCC2)nc1)NNC(=S)Nc1ccccc1` [Compound 9, 2-{[(6-Morpholin-4-ylpyridin-3-yl)amino]acetyl}-N-phenylhydrazinecarbothioamide] returned a melting point of 171 to 172 °C. For the same molecule, the MIC in [7] (setting [12]) came to 125 µg/mL (≈ 323 µM). This molecule also displayed a half-maximal inhibitory concentration (IC50) in data set [8] of 8.07 ± 1.25 µM. The MIC in data set [9] (setting [13]) was 1000 µg/mL (≈ 2590 µM). Besides, in data set [10] (setting [14]), the MIC is 1000 µg/mL (≈ 2590 µM).
`O=C(CNc1ccc(N2CCOCC2)nc1)N/N=c1\sc(-c2ccc(Cl)cc2)cn1-c1ccccc1` [Compound 10] yielded a melting point of 168 to 169 °C. In data set [8], this molecule came in with a 50% inhibitory concentration (IC50) of 2.37 ± 0.19 µM. For the same molecule, the MIC in data set [9] (setting [13]) is 1000 µg/mL (≈ 1920 µM). Also, the MIC in data set [10] (setting [14]) was 500 µg/mL (≈ 960 µM).
In the case of `Sc1nnc(CNc2ccc(N3CCOCC3)nc2)n1-c1ccccc1` [Compound 11], the melting point was 165 to 166 °C.
`c1ccc(Nc2nnc(CNc3ccc(N4CCOCC4)nc3)s2)cc1` [Compound 12] had a melting point of 172 to 173 °C.
Consider `O=C(CNc1ccc(N2CCOCC2)nc1)N/N=C1\SCC(=O)N1c1ccccc1` [Compound 13, 2-[(6-Morpholin-4-ylpyridin-3-yl)amino]-N’-(4-oxo-3-phenyl-1,3-thiazolidin-2-ylidene)acetohydrazide], for which the melting point fell in the range of 201 to 202 °C. The molecule further returned an IC50 in data set [8] of 4.46 ± 0.22 µM. The MIC in data set [9] (setting [13]) was 1000 µg/mL (≈ 2340 µM). For the same molecule, the MIC in [10] (setting [14]) came to 500 µg/mL (≈ 1170 µM).
`OC(Cn1cncn1)(Cn1cncn1)c1ccc(F)cc1F` [Flu., Fluconazole, reference compound]: the MIC in [9] (RSKK251, S. cerevisiae RSKK 251, buffered Yeast Nitrogen Base pH 7.0, 18–24 h at 35 °C, read-out: minimal inhibition concentration, Sc) was less than 8 µg/mL; in data set [10] (ATCC60193, Candida albicans ATCC 60193, buffered Yeast Nitrogen Base pH 7.0, 18–24 h at 35 °C, read-out: minimal inhibition concentration, Ca), less than 8 µg/mL.
Consider `CN[C@@H]1[C@H](O[C@H]2[C@H](O[C@H]3[C@H](O)[C@@H](O)[C@H](N=C(N)N)[C@@H](O)[C@@H]3N=C(N)N)O[C@@H](C)[C@]2(O)C=O)O[C@@H](CO)[C@H](O)[C@H]1O` [Str., Streptomisin, reference compound], for which, in data set [7] (ATCC607, Mycobacterium smegmatis ATCC 607, Brain Heart Infusion broth, 48–72 h at 35 °C, – = no activity, read-out: minimal inhibition concentration, Ms), the MIC was determined as 4 µg/mL (≈ 6.88 µM).

By IC50 is commonly meant the concentration at which inhibition is half-maximal. Higher therefore signals weaker potency in that assay. One may read the melting point as the temperature, or range, at which the solid turns liquid.
